Calls of active or inactive are those of the source.
Columns and labels:
Hexokinase HKDC1 = biological target: T1, Hexokinase HKDC1 (Homo sapiens, UniProt Q2TB90); experiment: HKDC1 hexokinase inhibitors, dose response, biochemical, W721R variant (AID 504729); assay type: functional
T1 sequence (Q2TB90 whole entry): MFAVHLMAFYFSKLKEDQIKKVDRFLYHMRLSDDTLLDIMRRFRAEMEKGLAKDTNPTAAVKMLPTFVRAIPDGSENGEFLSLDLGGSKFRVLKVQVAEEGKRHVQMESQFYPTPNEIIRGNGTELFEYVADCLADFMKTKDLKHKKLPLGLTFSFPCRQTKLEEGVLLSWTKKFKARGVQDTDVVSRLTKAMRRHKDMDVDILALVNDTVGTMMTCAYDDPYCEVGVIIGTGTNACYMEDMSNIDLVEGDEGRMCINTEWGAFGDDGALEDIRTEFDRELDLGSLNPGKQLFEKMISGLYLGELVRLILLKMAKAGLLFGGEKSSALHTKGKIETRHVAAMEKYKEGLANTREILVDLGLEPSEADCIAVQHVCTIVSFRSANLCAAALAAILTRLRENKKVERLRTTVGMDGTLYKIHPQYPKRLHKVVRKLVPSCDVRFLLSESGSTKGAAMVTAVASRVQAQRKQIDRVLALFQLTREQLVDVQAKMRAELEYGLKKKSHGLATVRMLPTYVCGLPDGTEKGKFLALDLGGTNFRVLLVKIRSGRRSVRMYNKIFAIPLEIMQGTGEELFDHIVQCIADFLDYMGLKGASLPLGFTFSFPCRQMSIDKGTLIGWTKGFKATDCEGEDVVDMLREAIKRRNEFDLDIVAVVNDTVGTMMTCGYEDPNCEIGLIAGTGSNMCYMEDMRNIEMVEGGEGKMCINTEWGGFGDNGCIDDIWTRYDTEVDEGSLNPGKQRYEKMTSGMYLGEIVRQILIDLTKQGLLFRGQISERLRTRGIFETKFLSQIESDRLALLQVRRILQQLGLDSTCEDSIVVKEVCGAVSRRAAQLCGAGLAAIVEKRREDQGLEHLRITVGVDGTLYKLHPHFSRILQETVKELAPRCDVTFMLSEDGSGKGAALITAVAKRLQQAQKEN

[1] = biological target: T2, Replicative DNA helicase DnaB (Mycobacterium tuberculosis, UniProt P9WMR3); experiment: DnaB intein splicing inhibitors, dose response, biochemical, cell-free fluorescence (AID 449749); assay type: functional
T2 sequence (P9WMR3 whole entry): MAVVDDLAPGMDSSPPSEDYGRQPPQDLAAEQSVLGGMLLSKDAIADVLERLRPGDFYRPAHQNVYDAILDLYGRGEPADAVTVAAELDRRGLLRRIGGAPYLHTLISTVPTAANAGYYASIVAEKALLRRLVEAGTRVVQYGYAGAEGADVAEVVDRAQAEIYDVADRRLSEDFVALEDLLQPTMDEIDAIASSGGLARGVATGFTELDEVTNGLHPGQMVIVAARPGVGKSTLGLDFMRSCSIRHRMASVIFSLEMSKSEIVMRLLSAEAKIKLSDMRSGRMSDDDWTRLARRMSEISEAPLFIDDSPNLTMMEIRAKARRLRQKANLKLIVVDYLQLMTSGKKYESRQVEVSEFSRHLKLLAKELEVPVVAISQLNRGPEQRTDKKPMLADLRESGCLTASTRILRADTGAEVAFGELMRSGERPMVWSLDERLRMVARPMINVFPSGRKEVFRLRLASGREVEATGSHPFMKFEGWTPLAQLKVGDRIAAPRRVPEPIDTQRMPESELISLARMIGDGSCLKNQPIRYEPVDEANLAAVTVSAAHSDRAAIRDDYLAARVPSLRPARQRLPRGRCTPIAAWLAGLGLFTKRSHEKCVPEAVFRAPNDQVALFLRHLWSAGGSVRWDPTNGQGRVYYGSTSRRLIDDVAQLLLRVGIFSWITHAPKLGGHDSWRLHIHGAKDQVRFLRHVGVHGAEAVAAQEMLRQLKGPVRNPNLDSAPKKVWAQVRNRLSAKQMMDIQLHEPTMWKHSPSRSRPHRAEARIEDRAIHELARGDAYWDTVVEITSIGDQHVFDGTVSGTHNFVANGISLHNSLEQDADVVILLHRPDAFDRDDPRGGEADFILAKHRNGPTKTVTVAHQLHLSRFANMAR

[2] = biological target: T3, Tyrosyl-DNA phosphodiesterase 2 (Homo sapiens, UniProt O95551); experiment: human TDP2 enzyme inhibitors, dose response, biochemical, epi absorbance, IC50 (AID 743297)
T3 sequence (O95551 whole entry): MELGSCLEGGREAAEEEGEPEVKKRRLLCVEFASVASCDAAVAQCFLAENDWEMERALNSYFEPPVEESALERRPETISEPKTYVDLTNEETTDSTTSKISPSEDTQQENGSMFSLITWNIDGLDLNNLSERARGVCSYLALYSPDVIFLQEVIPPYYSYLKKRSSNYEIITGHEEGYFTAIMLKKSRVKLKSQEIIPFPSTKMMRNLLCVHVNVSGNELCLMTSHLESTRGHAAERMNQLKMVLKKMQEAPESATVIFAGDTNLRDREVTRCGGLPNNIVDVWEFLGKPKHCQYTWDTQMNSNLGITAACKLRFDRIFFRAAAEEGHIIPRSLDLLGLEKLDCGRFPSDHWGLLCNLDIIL

[3] = inhibitors of firefly luciferase expression or activity, dose response, H4 neuroglioma cells, luminescence (AID 1990); assay type: functional, cell-based
[4] = Luminescence Cell-Based Dose Response HTS to Identify Inhibitors of 5'UTR Stem-Loop Driven Prion Protein mRNA Translation in H4 Neuroglioblastoma Cells. [Related pubchem assays: 1827 (Project Summary), 1813 (Primary HTS)]; assay type: functional
[5] = inhibitors of SNCA 5'UTR-driven reporter translation, confirmation, H4 neuroglioma cells, luminescence (AID 1988); assay type: functional, cell-based
[6] = biological target: T4, Intestinal-type alkaline phosphatase (Homo sapiens, UniProt P09923); experiment: human IAP inhibitors, dose response, biochemical, luminescent, uHTS hits, set 2 (AID 488793); assay type: functional
[7] = biological target: T4, Intestinal-type alkaline phosphatase; experiment: Dose Response confirmation of uHTS hits from a small molecule inhibitors of human intestinal alkaline phosphatase via a luminescent assay. [Related pubchem assays (depositor defined):AID2544, AID2574]; assay type: functional
[8] = biological target: Proto-oncogene tyrosine-protein kinase receptor Ret (Homo sapiens, UniProt P07949); assay type: functional;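 note: measured within a kinome-wide profiling panel, RET as the panel member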
[9] = biological target: Insulin-like growth factor 1 receptor (Homo sapiens, UniProt P08069); experiment: Navigating the Kinome. Panel member name: IGF1R; assay type: functional
[10] = biological target: Mitogen-activated protein kinase 1 (Homo sapiens, UniProt P28482); assay type: functional
[11] = biological target: Serine/threonine-protein kinase pim-2 (Homo sapiens, UniProt Q9P1W9); assay type: functional;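 note: value comes from a broad kinase panel profiling study in which PIM2 was one of the panel members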
[12] = biological target: Receptor tyrosine-protein kinase erbB-4 (Homo sapiens, UniProt Q15303); assay type: functional;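 note: ERBB4 member of a kinome-wide kinase profiling panel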
Receptor tyrosine-protein kinase erbB-4, sequence (Q15303 whole entry): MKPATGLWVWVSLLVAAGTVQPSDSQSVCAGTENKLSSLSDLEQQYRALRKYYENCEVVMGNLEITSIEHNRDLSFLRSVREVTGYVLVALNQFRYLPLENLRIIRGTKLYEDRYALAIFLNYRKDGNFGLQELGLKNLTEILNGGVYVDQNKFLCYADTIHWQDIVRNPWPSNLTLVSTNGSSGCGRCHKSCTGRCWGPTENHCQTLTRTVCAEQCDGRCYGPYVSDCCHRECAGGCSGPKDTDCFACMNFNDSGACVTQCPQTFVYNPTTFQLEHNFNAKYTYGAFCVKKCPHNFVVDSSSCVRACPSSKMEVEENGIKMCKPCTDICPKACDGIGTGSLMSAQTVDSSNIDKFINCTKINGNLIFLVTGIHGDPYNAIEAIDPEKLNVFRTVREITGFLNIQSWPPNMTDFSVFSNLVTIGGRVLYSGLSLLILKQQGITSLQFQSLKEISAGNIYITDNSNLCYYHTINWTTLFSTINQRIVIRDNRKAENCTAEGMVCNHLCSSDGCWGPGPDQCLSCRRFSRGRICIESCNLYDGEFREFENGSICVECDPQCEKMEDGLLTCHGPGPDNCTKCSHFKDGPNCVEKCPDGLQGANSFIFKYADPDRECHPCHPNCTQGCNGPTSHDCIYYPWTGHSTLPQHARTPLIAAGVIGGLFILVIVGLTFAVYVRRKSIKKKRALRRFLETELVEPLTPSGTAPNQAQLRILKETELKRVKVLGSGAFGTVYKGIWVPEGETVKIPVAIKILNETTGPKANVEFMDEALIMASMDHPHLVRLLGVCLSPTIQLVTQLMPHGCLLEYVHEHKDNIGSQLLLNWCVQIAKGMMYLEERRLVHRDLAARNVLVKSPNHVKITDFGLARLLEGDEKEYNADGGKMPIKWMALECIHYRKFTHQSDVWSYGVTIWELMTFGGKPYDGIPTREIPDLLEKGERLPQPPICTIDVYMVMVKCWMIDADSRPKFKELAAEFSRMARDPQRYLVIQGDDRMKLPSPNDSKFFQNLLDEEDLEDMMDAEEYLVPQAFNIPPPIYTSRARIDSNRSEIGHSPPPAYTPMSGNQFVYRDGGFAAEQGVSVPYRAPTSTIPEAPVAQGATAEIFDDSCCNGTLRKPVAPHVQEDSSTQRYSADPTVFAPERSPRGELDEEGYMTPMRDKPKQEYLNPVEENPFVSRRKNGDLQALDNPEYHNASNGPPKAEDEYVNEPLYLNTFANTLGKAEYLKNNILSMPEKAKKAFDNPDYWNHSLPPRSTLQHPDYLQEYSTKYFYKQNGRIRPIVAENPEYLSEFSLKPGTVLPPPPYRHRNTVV

T4 sequence (P09923 whole entry): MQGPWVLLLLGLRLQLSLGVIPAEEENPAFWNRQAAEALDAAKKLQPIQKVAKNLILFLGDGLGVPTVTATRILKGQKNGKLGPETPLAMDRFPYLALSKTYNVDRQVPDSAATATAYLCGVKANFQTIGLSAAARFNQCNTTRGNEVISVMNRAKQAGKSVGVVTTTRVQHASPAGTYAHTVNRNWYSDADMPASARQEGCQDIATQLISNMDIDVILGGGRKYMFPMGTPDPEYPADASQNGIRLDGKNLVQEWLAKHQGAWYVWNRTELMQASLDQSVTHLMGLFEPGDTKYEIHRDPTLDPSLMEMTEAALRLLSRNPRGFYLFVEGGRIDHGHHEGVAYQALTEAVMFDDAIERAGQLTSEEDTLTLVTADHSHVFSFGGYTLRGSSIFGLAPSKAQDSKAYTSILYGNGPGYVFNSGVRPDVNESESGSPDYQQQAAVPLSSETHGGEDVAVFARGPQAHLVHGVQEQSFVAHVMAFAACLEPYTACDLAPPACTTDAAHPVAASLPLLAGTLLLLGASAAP
Serine/threonine-protein kinase pim-2, sequence (Q9P1W9 whole entry): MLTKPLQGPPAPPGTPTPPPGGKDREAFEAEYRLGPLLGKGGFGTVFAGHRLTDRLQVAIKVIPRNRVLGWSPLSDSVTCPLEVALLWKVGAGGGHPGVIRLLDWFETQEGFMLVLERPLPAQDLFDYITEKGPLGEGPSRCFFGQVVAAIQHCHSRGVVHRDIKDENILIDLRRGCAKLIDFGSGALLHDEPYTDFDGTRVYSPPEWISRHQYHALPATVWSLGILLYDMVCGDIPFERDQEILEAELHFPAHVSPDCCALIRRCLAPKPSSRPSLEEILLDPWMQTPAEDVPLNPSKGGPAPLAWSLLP
Insulin-like growth factor 1 receptor, sequence (P08069 31-736 limits assumed): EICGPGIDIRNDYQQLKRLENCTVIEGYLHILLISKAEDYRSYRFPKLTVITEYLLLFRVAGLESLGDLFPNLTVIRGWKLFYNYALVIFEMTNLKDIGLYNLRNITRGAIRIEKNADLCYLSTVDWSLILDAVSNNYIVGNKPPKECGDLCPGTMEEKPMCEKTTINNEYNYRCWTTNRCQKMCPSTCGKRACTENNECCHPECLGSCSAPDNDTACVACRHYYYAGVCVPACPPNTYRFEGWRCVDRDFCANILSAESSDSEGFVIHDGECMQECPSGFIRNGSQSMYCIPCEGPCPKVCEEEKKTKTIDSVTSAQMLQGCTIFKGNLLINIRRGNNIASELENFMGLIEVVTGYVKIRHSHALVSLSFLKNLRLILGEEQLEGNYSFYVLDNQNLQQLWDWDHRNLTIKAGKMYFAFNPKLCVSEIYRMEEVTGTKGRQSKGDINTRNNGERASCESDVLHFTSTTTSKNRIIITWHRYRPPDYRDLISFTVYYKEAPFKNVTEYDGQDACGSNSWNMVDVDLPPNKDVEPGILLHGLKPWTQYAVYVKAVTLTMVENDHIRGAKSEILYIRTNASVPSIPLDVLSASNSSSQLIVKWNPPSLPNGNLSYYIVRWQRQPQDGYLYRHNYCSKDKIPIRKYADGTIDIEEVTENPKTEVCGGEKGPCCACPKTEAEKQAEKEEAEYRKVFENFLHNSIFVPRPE
Insulin-like growth factor 1 receptor, sequence (P08069 741-1367 limits assumed): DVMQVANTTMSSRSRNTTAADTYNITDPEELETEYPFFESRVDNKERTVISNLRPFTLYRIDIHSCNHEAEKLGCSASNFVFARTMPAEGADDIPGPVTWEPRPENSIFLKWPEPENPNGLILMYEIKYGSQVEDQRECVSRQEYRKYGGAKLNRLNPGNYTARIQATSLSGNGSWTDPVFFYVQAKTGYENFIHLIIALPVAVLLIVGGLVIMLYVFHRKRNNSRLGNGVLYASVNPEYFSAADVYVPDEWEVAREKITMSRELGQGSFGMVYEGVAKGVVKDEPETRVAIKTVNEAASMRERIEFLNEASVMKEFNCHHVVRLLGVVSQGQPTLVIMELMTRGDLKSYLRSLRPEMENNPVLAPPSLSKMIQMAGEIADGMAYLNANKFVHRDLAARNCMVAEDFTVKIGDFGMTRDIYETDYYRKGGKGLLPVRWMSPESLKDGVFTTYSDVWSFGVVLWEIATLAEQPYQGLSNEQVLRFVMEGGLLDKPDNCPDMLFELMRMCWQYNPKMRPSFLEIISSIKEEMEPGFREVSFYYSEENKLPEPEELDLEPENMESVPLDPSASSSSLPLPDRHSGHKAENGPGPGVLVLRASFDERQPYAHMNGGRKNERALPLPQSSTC
Proto-oncogene tyrosine-protein kinase receptor Ret, sequence (P07949 whole entry): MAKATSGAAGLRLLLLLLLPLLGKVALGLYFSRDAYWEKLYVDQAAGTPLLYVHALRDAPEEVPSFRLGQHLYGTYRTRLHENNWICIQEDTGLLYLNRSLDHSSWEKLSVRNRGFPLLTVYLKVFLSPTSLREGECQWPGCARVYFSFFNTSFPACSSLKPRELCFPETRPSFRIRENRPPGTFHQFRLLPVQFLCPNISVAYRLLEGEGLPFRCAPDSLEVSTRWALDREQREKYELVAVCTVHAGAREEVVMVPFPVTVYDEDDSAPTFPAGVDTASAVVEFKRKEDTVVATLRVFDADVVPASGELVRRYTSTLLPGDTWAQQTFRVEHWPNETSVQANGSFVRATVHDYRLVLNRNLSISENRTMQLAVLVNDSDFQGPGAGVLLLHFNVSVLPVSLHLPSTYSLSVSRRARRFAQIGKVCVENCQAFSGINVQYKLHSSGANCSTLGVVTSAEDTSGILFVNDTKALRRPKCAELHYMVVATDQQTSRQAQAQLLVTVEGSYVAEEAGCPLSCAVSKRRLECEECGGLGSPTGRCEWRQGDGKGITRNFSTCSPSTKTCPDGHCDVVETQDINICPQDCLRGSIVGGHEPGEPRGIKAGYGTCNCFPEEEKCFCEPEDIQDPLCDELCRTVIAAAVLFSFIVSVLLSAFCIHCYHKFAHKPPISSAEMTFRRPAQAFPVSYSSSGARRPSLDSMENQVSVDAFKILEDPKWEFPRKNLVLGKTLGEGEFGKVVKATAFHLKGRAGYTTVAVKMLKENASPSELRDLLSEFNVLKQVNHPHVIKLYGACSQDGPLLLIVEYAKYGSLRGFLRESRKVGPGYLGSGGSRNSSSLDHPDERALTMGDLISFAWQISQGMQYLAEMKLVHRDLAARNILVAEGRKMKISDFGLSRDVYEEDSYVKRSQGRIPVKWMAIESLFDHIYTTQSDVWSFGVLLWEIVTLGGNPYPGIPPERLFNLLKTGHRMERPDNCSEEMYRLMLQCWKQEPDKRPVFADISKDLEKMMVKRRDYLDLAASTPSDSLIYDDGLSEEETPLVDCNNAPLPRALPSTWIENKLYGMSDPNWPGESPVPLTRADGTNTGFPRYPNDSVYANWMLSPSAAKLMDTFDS
Mitogen-activated protein kinase 1, sequence (P28482 whole entry): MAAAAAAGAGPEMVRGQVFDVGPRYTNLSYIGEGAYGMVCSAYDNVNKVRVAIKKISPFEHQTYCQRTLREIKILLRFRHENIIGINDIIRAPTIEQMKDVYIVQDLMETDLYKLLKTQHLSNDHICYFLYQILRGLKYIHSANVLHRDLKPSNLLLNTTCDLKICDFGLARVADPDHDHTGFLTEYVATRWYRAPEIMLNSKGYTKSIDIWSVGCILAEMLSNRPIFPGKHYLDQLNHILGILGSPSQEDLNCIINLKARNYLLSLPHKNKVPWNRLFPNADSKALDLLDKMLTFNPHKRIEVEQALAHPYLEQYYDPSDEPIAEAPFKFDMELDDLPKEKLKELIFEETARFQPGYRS

Structure (SMILES)	IC50 (Hexokinase HKDC1)	AC50 [1]	IC50 [2]	EC50 [3]	EC50 [4]	EC50 [5]	other results
CC(=O)NC1C(=O)N(CCN2CCOCC2)c2ccc(F)cc21 (centres undefined)	9.43 µM (active)	12.3 µM (active)	33.4 µM (inactive)				
O=C1C=C(N2CCCCC2)c2ccccc2C1=O	1.34 µM (active)		5.32 µM (active)	> 120 µM (not active)	8.27 µM (active)	9.02 µM (active)	
O=C(O)C1Nc2c(O)cc(Cl)c([N+](=O)[O-])c2C2C=CCC12 (centres undefined)		12.8 µM (active)					
O=C(CCc1ccccc1)NNc1cc(N2CCCCC2)nc(N2CCCCC2)n1				> 120 µM (not active)	> 120 µM (not active)	> 120 µM (not active)	
Oc1ccc(N=Nc2c(O)ccc3ccccc23)cc1							IC50 [6]: 15.5 µM (active); IC50 [7]: 17.7 µM (inactive)
Cc1n[nH]c2ccc(-c3cncc(OCC(N)Cc4cccc(Cl)c4)c3)cc12 (centres undefined)							Ki [8]: 1 µM (active); Ki [9]: > 2 µM (inactive); Ki [10]: 0.0794 µM (active); Ki [11]: 0.01 µM (active); Ki [12]: > 3.98 µM (inactive)
